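Grown in 96-well plates, cells were treated for 48 hours with each compound at five concentrations. Insufficient inhibition: endpoint recorded as highest concentration tested. GI50 = concentration required for 50% inhibition of growth.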 Active and inactive are the calls of the source. Rule as the data show it: active = GI50 up to about 1.1 µM and inactive = higher.

Experimental findings from ChEMBL document CHEMBL1201862, “PubChem BioAssay data set” (2004) are described below.

Test in all cases: growth of human tumour cells (NCI), 48 h
Assay [1] deals with M19-MEL.
For assay [2], the system named is DMS-114.
The subject of assay [3] is DMS-273.
The subject of assay [4] is LXFL 529.
Assay [5] deals with HOP-18.
For assay [6], the system named is SNB-78.
Assay [7] concerns DLD-1.
Assay [8] has as its system RXF 631.
Assay [9] relates to XF498.

Turning to `Cn1cc2ccccc2c1-c1nc(F)nc(Oc2ccc3c(c2)CC[C@@H]2C3CC[C@]3(C)C(O)CCC23)n1` (stereo partly specified), the GI50 was 21.7 µM (inactive) in [1]; 13.8 µM (inactive) in assay [2]; 19.8 µM (inactive) in assay [3]; 10.4 µM (inactive) in assay [4]; 15.3 µM (inactive) in assay [5]; 12.2 µM (inactive) in [6]. For the same compound, the GI50 in [7] was 15.9 µM (inactive).
On to `O=C(CCC(=O)Nc1ccc(Cl)c(Cl)c1)Cc1nc2ccccc2o1`, for which the GI50 in assay [1], in assay [2], in assay [3], in assay [4], in [5] and in [8] was > 100 µM (inactive) throughout. Moreover, the GI50 in [6] was > 100 µM (inactive).
As to `COc1ccc(C2C(C(=O)O)=C(COC(C)=O)Oc3cc4c(cc32)OCO4)c(OC)c1` (stereo unspecified), the GI50 in assay [1], in assay [2], in assay [3], in assay [9], in assay [5] and in [8] was > 100 µM (inactive) in each case. The GI50 in assay [6] and in assay [7] was > 100 µM (inactive) in each case.
Take `CNC1=C(C)C(=O)C(C)=C(C(C)(C)CC(=O)n2cc(F)c(=O)[nH]c2=O)C1=O`: the GI50 in [1] was 49.7 µM (inactive); in [2], 74.6 µM (inactive); in [3], 23.1 µM (inactive); in assay [4], > 89.1 µM (inactive); in [9] it was 97.7 µM (inactive); in assay [5] it was > 100 µM (inactive). The GI50 is 23.4 µM (inactive) in assay [8], > 100 µM (inactive) in [6] and 12.8 µM (inactive) in assay [7].
With `O=C(O)[C@H](NS(=O)(=O)c1ccc([N+](=O)[O-])cc1)c1ccccc1`, the GI50 in assay [1], in assay [2], in assay [3], in [4], in assay [9] and in assay [5] was > 100 µM (inactive) in each case. The GI50 in [8], in assay [6] and in [7] was > 100 µM (inactive) each time.
Take `C=CC[C@@]1(C#N)C[C@H](C[C@]2(C#N)C[C@H](CCl)OC(C)(C)O2)OC(C)(C)O1`: the GI50 was > 100 µM (inactive) in assay [1]; 41.2 µM (inactive) in assay [2]; > 100 µM (inactive) in [3]; 81.1 µM (inactive) in [9]; > 100 µM (inactive) in assay [5]; > 100 µM (inactive) in [7].
For `[O-][N+]1=C(c2ccccc2)COc2ccccc21`, the GI50 in assay [1] was > 100 µM (inactive); in [2], > 100 µM (inactive); in [3], > 100 µM (inactive); in assay [4] it was > 100 µM (inactive); in assay [5], > 100 µM (inactive); in [8], 70.1 µM (inactive). Besides, the GI50 in [6] and in assay [7] was > 100 µM (inactive) in each case.
`C=C1CCC2C(C)(CO)C(O)CCC2(C)C1CC(O)C1=CCOC1=O` (stereo unspecified): the GI50 is 45.5 µM (inactive) in assay [1]; 41.8 µM (inactive) in [2]; > 100 µM (inactive) in [3]; 27 µM (inactive) in assay [4]; 54.7 µM (inactive) in [5]; 30.5 µM (inactive) in [8]. For the same compound, in assay [7], the GI50 is 86.3 µM (inactive).
Turning to `CCCC/C=C/C1Cc2ccccc2CN1S(=O)(=O)c1ccc(C)cc1` (stereo unspecified), the GI50 in assay [1] was 6.01 µM (inactive); in [2] it was 3.03 µM (inactive); in assay [3], 7.71 µM (inactive); in assay [4] it was 5.42 µM (inactive); in [9] it was 17 µM (inactive); in [5], 83 µM (inactive). Moreover, the GI50 is 5.78 µM (inactive) in assay [8] and 7.71 µM (inactive) in assay [7].
Regarding `COC1=C(C)C(=O)C2=C(C1=O)C1C3CC4=C(C(=O)C(OC)=C(C)C4=O)C(CNC(=O)C(C)=O)N3C(C#N)C(C2)N1C` (stereo unspecified), the GI50 was 0.00634 µM (active) in assay [1]; 0.00162 µM (active) in [2]; 0.00432 µM (active) in assay [3]; 0.0553 µM (active) in assay [5]; 0.0206 µM (active) in [8]; 0.00617 µM (active) in assay [6]. Besides, the GI50 in [7] is 0.00254 µM (active).
In the case of `NCC1(N2CCOCC2)C2CCCC21CO` (stereo unspecified), the GI50 in assay [1], in assay [2], in assay [3], in assay [4], in [5] and in [6] was > 100 µM (inactive) each time. The GI50 in assay [7] was > 100 µM (inactive).
For the compound `COC(=O)C(=O)C(C(=O)C(=O)Nc1ccccc1C(N)=O)c1nc2ccc(C(=O)c3ccccc3)cc2nc1O` (stereo unspecified), the GI50 in assay [1] was > 100 µM (inactive); in assay [2], > 100 µM (inactive); in assay [3], 62.8 µM (inactive); in assay [4] it was 44.6 µM (inactive); in [9], > 100 µM (inactive); in assay [5], 37.1 µM (inactive). In addition, the GI50 was > 100 µM (inactive) in assay [8] and 68.7 µM (inactive) in assay [6].
For `CC(C)N(C(=O)C12C3C4C5C3C1(C(=O)N(C(C)C)C(C)C)C5(C#N)C42)C(C)C` (stereo unspecified), the GI50 was > 100 µM (inactive) in [1]; > 100 µM (inactive) in assay [2]; 45.8 µM (inactive) in [3]; > 100 µM (inactive) in [4]; > 100 µM (inactive) in [9]; > 100 µM (inactive) in assay [5]. Further, the GI50 is > 100 µM (inactive) in assay [8], > 100 µM (inactive) in assay [6] and 27.1 µM (inactive) in [7].
`COc1cc(C(Cc2ccccc2)NC(C)=O)oc(=O)c1` (stereo unspecified): the GI50 in assay [1], in assay [2], in assay [3], in [4], in assay [9] and in assay [7] was > 100 µM (inactive) throughout.
On to `O=C1COc2cc3c(cc2N1)SCC(=O)N3`, for which the GI50 in assay [1], in assay [2], in assay [3], in assay [4], in assay [9] and in assay [5] was > 100 µM (inactive) in each case. The GI50 in assay [8], in assay [6] and in assay [7] was > 100 µM (inactive) throughout.
`c1ccc(N2N=NC3C4CC(C5c6ccccc6C45)C32)cc1` (stereo unspecified): the GI50 in [1] was 22.7 µM (inactive); in [2] it was 19.9 µM (inactive); in [3], 47.1 µM (inactive); in assay [4], 44 µM (inactive); in assay [9], 19.1 µM (inactive); in assay [8] it was 34.7 µM (inactive). Further, the figures for the GI50 in assay [6] and in assay [7] were 43.4 µM (inactive) and 32.5 µM (inactive), respectively.
`Nc1ccc(C(=O)CC2(O)C(=O)Nc3c(Cl)cc(Cl)cc32)cc1` (stereo unspecified): the GI50 was 47 µM (inactive) in assay [1]; 37.8 µM (inactive) in assay [4]; 90.6 µM (inactive) in assay [5]; 28.8 µM (inactive) in assay [8]; 42.9 µM (inactive) in [7].
On to `COC(=O)/C=C/C(=O)C1C(C(=O)OC)C2(C(=O)OC)CCC1(C(=O)OC)N2` (stereo unspecified), for which the GI50 was > 100 µM (inactive) in assay [1]; > 100 µM (inactive) in assay [2]; 0.198 µM (active) in assay [9]; > 100 µM (inactive) in [5]; > 100 µM (inactive) in assay [6]; > 100 µM (inactive) in assay [7].
`CCN(CCCl)CCCCNc1c2ccccc2nc2ccc(OC)cc12`: the GI50 was 0.235 µM (active) in assay [1]; 0.323 µM (active) in assay [2]; 0.0865 µM (active) in [3]; 0.0923 µM (active) in assay [4]; 0.553 µM (active) in assay [8]; 0.527 µM (active) in [6]. The GI50 in [7] is 0.0891 µM (active).
